# Measured values as given in patent US8263601B2, “Deuterium substituted xanthine derivatives” (CoNCERT Pharmaceuticals, Inc., priority 2009, dated 2012).
# Read-outs that look alike come from different tables or passages of the source.
# Legend:
# [1] = Pharmacokinetic study of pentoxifylline and Compound 435(S) in chimps after oral dosing (Example 39); format: in vivo; conditions: for % Difference in AUC0-12 Female (deuterated vs nondeuterated species) / % Difference in AUC0-12 Male (deuterated vs nondeuterated species): oral
# Protocol: Pentoxifylline and Compound 435(S) were tested according to a protocol similar to the Oral Dosing protocol followed in Example 38, except that (a) the compounds were separately dissolved in water rather than saline; (b) the mixture of the two compounds was not sterile filtered; and (c) oral administration was achieved by oral gavage of a single 65 mg dose of each compound (13 mL total dosing solution).
# [2] = Pharmacokinetic study in rats of (S)-M1 and Compound 435(S) after oral dosing (Example 37); format: in vivo, male Sprague-Dawley rats
# Protocol: (§1) (S)-M1 and Compound 435(S) (a deuterated form of (S)-M1) were separately dissolved in saline at a concentration of 10 mg/mL. A 1:1 mixture of the two compounds was then prepared containing a final concentration of 5 mg/mL of each compound, which was used for intravenous administration. For oral administration the mixture was further diluted in saline to a final concentration of 1 mg/mL for each compound.
# (§2) Three male Sprague-Dawley rats were used in each of the oral and intravenous studies. Animals were fasted overnight prior to administration of compounds. Intravenous administration was achieved by bolus injection of a single 5 mg/kg dose of the 1:1 combination into the cannulated jugular vein of the rats. Cannulation was achieved the day prior to dosing on rats that had been placed under anesthesia using ketamine (IM 30 mg/kg). Oral administration was achieved by oral gavage of a single 5 mg/kg dose. Blood samples (250 μL) were collected from the dosed rats at various times post-dosing (2 min, 5 min, 10 min, 20 min, 30 min, 1 hr, 2 hr, 3 hr, 4 hr, 5 hr, 6 hr) by retro-orbital sampling of the rats temporarily anesthetized with isoflurane. Blood samples were placed in tubes containing K2-EDTA and stored on ice until centrifuged. Within 30 minutes of collection, plasma was isolated by centrifugation. A 100-μL aliquot was removed, mixed with 200 μL of acetonitrile and stored at −20° C. until further analysis by LC-MS/MS using an Applied Bio-systems API 4000 mass spectrometer.
# (§3) Samples were analyzed for the presence of the administered compound, the corresponding ketone (pentoxifylline and Compound 409) and the corresponding M5 metabolite. Samples (10 μL) were injected into a Zorbax SB-C8 (Rapid Resolution) column (2.1×30 mm, 3.5 μm). The initial mobile phase condition was 100% A (10 mM ammonium acetate in water) and 0% B (methanol) with a flow rate at 0.5 mL/min. Mobile phase B was allowed to reach 55% in 3 minutes and from 55% to 90% in 1 minute before ramping back to 0% in another minute. The overall run time was 5 minutes. For pentoxifylline and its M1 and M5 metabolites, the precursor/product ion pairs were set at m/z 281/193 (M1), m/z 279/181 (pentoxifylline), and m/z 267/221 (M5).
# (§4) For Compound 435(S) and Compound 409 more than one ion pair was set up for to detect species that arose from loss of deuterium. […] This loss of deuterium appears to occur both in vivo and ex vivo by an unknown mechanism. The addition of acetonitrile to serum samples was used to stop any additional ex vivo deuterium loss prior to analysis. Typically, no more than 2 deuterium atoms were replaced by hydrogen. For Compound 435(S), there is a deuterium at the methinyl position which was lost upon oxidation to the keto-compound 409. Reduction of 409 to an M1 metabolite introduced a proton at the methinyl position. When serum from animals dosed with 435(S) were analyzed to quantitate administered compound and metabolites, compound species were included with one and two less side chain deuteriums in the total amounts (referred to hereinafter as the “−1D” and the “−2D” species). Thus, for Compound 435(S) and Compound 409 separate ion pairs were set up to detect the compound and its corresponding −1D and −2D species. For Compound 435(S) three ion pairs were detected: m/z 291/197, 290/197, and […]. For Compound 409 ion pairs of m/z 288/186, 287/186 and 286/186 were monitored. Inclusion of −1D and −2D species in the measurements of Compound 409 and Compound 435(S) more accurately quantitates the total active species and is reasonable based on what is known about the metabolism and activities of pentoxifylline and its M-1 metabolites. Increased plasma exposure to Compound 409 or any M-1 metabolites of 409 would be desirable. This includes the −1D and −2D species.
# (§5) [drawing 78] which has no deuterium on its acid side chain, only one ion pair was used at m/z 271/225. The internal standard for the analysis was indiplon.
# [3] = Pharmacokinetic study in rats of (S)-M1 and Compound 435(S) after intravenous dosing (Example 37); format: in vivo, male Sprague-Dawley rats; conditions: for AUC(0-inf): male, Sprague-Dawley, rat
# Protocol: as §1, §2, §3, §4, §5
# [4] = Pharmacokinetic study of pentoxifylline and Compound 435(S) in chimps after oral dosing (Example 38); format: in vivo; conditions: for % Difference in AUC0-∞ Female (deuterated vs nondeuterated species) / % Difference in AUC0-∞ Male (deuterated vs nondeuterated species): oral; for AUC(0-inf): oral gavage 75 mg each of pentoxifylline and 435(S) as 1:1 mixture, species named in label measured in plasma
# Protocol: (§6) Pentoxifylline and Compound 435(S) were separately dissolved in warm (65° C.) saline at a concentration at 10 mg/mL. A 1:1 mixture of the two compounds was then prepared containing a final concentration of 5 mg/mL of each compound and the mixture was then sterile filtered through a 0.2-μm filter.
# (§7) Two chimps (one male and one female) were used in each of the oral and intravenous studies. Animals were fasted overnight prior to administration of compounds. All animals were sedated with ketamine (approximately 10 mg/kg) and/or telazol (approximately 5 mg/kg) prior to dosing. Intravenous administration was achieved by IV infusion of 75 mg of each compound (15 mL total dosing solution) over 10 minutes. Oral administration was achieved by oral gavage of a single 75 mg dose of each compound (15 mL total dosing solution). Blood samples (6 mL) were collected from the dosed chimps at various times prior to and after dosing. For intravenous administrations blood samples were collected at 0 min (preinfusion), 5 min, 9.5 min (immediately before the end of the infusion), then 6, 15, 30 and 45 min, and 1, 2, 4, 6, 8, 10 and 12 hr after the infusion is stopped. For oral administrations, blood samples were collected at 0 min (predose), 15 and 30 min, and 1, 1.5, 2, 4, 6, 8, 10 and 12 hr postdose.
# (§8) Blood samples were placed in tubes containing sodium heparin, mixed and stored on ice until centrifuged. Within 30 minutes of collection, plasma was isolated by centrifuging the blood samples and removing an aliquot (200 μL) of the resulting plasma. Each 200-μL aliquot of plasma was mixed with 400 μL acetonitrile and stored at −70° C. until further analysis by LC-MS/MS using an Applied Bio-systems API 4000 mass spectrometer.
# (§9) The analysis of all samples by LC-MS/MS was performed as described above for the rat plasma samples in Example 37.
# [5] = Pharmacokinetic study of pentoxifylline and Compound 435(S) in chimps after intravenous dosing (Example 38); format: in vivo; conditions: for AUC(0-inf): IV infusion 75 mg each of pentoxifylline and 435(S) over 10 minutes, species named in label measured in plasma; for % Difference in AUC0-∞ Female (deuterated vs nondeuterated species) / % Difference in AUC0-∞ Male (deuterated vs nondeuterated species): intravenous
# Protocol: as §6, §7, §8, §9
# [6] = intravenous bolus single 5 mg/kg dose of 1:1 combination of (S)-M1 and 435(S), species named in label measured in plasma
# [7] = female chimp, oral gavage 65 mg each of pentoxifylline and 435(S) in water, species named in label measured in plasma, read-out: AUC0-12 Female
# [8] = male chimp, oral gavage 65 mg each of pentoxifylline and 435(S) in water, species named in label measured in plasma, read-out: AUC0-12 Male
# [9] = male, Sprague-Dawley, rat, oral gavage single 5 mg/kg dose, 1:1 mixture of (S)-M1 and 435(S), species named in label measured in plasma, −1D and −2D species included
# [10] = female chimp, read-out: AUC0-∞ Female
# [11] = male chimp, read-out: AUC0-∞ Male
Compound,% Difference in AUC0-12 Female (deuterated vs nondeuterated species) ([1]; female chimp),"AUC(0-t) [1, 7] [ng·h/mL]",% Difference in AUC0-12 Male (deuterated vs nondeuterated species) ([1]; male chimp),"AUC(0-t) [1, 8] [ng·h/mL]","AUC(0-inf) [2, 9] [ng·h/mL]",% Difference in AUC0-∞ (deuterated vs nondeuterated species) ([2]; oral),"AUC(0-inf) [3, 6] [ng·h/mL]","AUC(0-inf) [5, 10] [ng·h/mL]",% Difference in AUC0-∞ Female (deuterated vs nondeuterated species) ([5]; female chimp),"AUC(0-inf) [5, 11] [ng·h/mL]",% Difference in AUC0-∞ Male (deuterated vs nondeuterated species) ([5]; male chimp),% Difference in AUC0-∞ Female (deuterated vs nondeuterated species) ([4]; female chimp),"AUC(0-inf) [4, 10] [ng·h/mL]",% Difference in AUC0-∞ Male (deuterated vs nondeuterated species) ([4]; male chimp),"AUC(0-inf) [4, 11] [ng·h/mL]",also measured
"C[C@H](O)CCCCn1c(=O)c2c(ncn2C)n(C)c1=O [(S)-M1, reference compound]",–,–,–,–,–,–,–,–,–,–,–,–,–,–,–,"AUC0-12 Female ([1]; female chimp, oral gavage 65 mg each of pentoxifylline and 435(S) in water, species named in label measured in plasma): 88 ng·h/mL; AUC0-12 Male ([1]; male chimp, oral gavage 65 mg each of pentoxifylline and 435(S) in water, species named in label measured in plasma): 75 ng·h/mL; Ratio of active species (M1 alcohol + ketone) to M5 metabolite ([2]; oral administration, from AUC0-∞): 1.6; Cmax ([2]; oral gavage single 5 mg/kg dose, 1:1 mixture of (S)-M1 and 435(S), species named in label measured in plasma): 1570 ± 249 ng/mL; AUC0-∞ ([2]; oral gavage single 5 mg/kg dose, 1:1 mixture of (S)-M1 and 435(S), species named in label measured in plasma, −1D and −2D species included): 1628 ± 272 ng·h/mL; Ratio of active species to the corresponding M5 metabolite ([3]; intravenous administration): 3.5; AUC0-∞ [3, 6]: 3390 ± 302 ng·h/mL; AUC0-∞ Female ([4]; in vivo, po, 75 mg): 301 ng·h/mL; AUC0-∞ Male ([4]; in vivo, po, 75 mg): 300 ng·h/mL"
"[2H]c1nc2c(c(=O)n(CCCC([2H])([2H])[C@@]([2H])(O)C([2H])([2H])[2H])c(=O)n2C)n1C([2H])([2H])[2H] [Compound 435(S), (S)-8-d1-1-(4,4,5,6,6,6-d6-5-Hydroxyhexyl)-3-methyl-7-(methyl-d3)-1H-purine-2,6(3H,7H)-dione]",+108%,183,+185%,214,4510 ± 1020,+177%,7130 ± 816,1210,+84%,2520,+61%,+123%,672,+176%,829,"Cmax ([2]; male, Sprague-Dawley, rat, oral gavage single 5 mg/kg dose, 1:1 mixture of (S)-M1 and 435(S), species named in label measured in plasma, read-out: Cmax): 4100 ± 964 ng/mL; % Difference in Cmax (deuterated vs nondeuterated species) ([2]; oral): +162%"
[2H]c1nc2c(c(=O)n(CCCC(=O)O)c(=O)n2C)n1C([2H])([2H])[2H] [Deuterated M5 (M5a)],−25%,609,−18%,667,1920 ± 183,−36%,1520 ± 530,632,−60%,428,−65%,−68%,606,−68%,462,% Difference in AUC0-∞ (deuterated vs nondeuterated species) ([3]; intravenous): −15%; Amount of M5a metabolite less than amount of M5 metabolite ([3]; intravenous administration of Compound 435(S) vs (S)-M1): 15%
